Assay results taken from article PMC12384620, “Hit-to-Lead Studies of Pyrazinylpiperazines against Visceral Leishmaniasis: Pharmacokinetic Profile and In Vivo Efficacy of Potent Compounds against Leishmania infantum” (ACS Pharmacology & Translational Science, 2025).

Legend:
[1] = PAMPA gastrointestinal tract permeability; assay type: in vitro ADME; conditions: for Papp at 8 h, 0.5 mM: PAMPA-GI, read-out: GI Pe
Protocol: A 10 mM solution of each compound in DMSO was prepared and subsequently homogenized in a 5 mL flask with 4.75 mL PBS (pH 6.6) (10 mM). […] 180 μL of a PBS (pH 7.4)/DMSO (95:5) solution were then added to the wells of a 96-well receiver plate, and 5 μL of a L-α-phosphatidylcholine solution (20 mg/mL in dodecane) to the wells of a 96-well donor plate. After 5 min, 180 μL of the solutions containing each compound were added to the wells of the donor plate, in triplicate, and the donor plate was carefully placed over the receiver plate in a “sandwich-like” system, which was left stirring (50 rpm) for 8 h at rt in a sealed vessel containing 10 mL PBS (pH 7.4). Afterward, the donor plate was removed, and the content of the receiver plate was transferred to a UV reading plate, which was read using a microplate reader (SpectraMax 5 – Molecular Devices). A reference sample for the internal correction of the microplate reader was prepared using 180 μL of the PBS (pH 7.4)/DMSO (95:5) solution (adapted from refs and ). The optical density values obtained from the content of the receiver plate were compared with the ones obtained from readings performed with the initial solutions containing each compound, before their addition to the donor plate. […] The optical density values from the receptor plate were compared to those from experimental controls to determine the F a value for each compound, using Microsoft Excel.

L. braziliensis = experiment: Inhibition of growth of L. braziliensis in THP-1 macrophages; assay type: cell-based; conditions: Leishmania braziliensis
From the text: 1 In Vitro Antileishmanial Potency, Selectivity Index, and ADME Properties of Compounds 1 – 6 | column: L. braziliensis IC50 (μM)^b (SI)^b

L. infantum = experiment: Antileishmanial activity against L. infantum amastigotes in THP-1 macrophages; assay type: cell-based; conditions: Leishmania infantum; growth of L. infantum in THP-1 macrophages, 72 h
Protocol: The in vitro anti-L. infantum activity (IC50) of each compound was evaluated on THP-1 cells (human leukemia monocytic cell line) infected with L. infantum promastigotes, and the in vitro cytotoxicity (CC50) was determined over the THP-1 cell line. The selectivity index (SI) was calculated as the ratio of the CC50 value determined in the cytotoxicity assay, divided by the IC50 value determined in the antileishmanial activity assay.
Cells derived from the human monocytic strain THP-1 were cultured in complete Rowell Park Memorial Institute (RPMI)-1640 medium (supplemented with 10% fetal bovine serum, 100 U/mL penicillin, and 100 μg/mL streptomycin). Monocytes were differentiated into macrophages by the addition of 20 ng/mL phorbol myristate acetate (PMA). After 72 h, the macrophages (5 × 10^4), in black 96-well microtiter plates (Corning Incorporated, Corning, NY), were infected with Leishmania (Leishmania) infantum (MHOM/BR/1974/PP75) promastigotes transfected with gene tdTomato, on the second day of the stationary phase (20 parasites per macrophage) for 4 h. […] The IC50 values were determined by nonlinear regression using a variable slope model (log(concentration) vs growth inhibition) with the GraphPadPrism v8.2.0 (CA, USA) software. Controls with uninfected cells, untreated infected cells, and infected cells treated with amphotericin B at 0.25 μM (positive control) or DMSO 1% were used. Quadruplicates were run on the same plate, and the experiments were repeated at least once.

[2] = PAMPA blood-brain barrier permeability; assay type: in vitro ADME; conditions: for BBB permeation class: PAMPA-BBB classification; for Papp at 0.2 mg/mL: PAMPA-BBB, pH 7.4, read-out: BBB Pe
Protocol: One mg of each compound was solubilized in ethanol (1 mL) in a 5 mL flask, and an additional 500 μL ethanol and 3.5 mL PBS buffer (pH 7.4) were added to this solution. […] 180 μL of a PBS (pH 7.4)/ethanol (70:30) solution were then added to the wells of a 96-well receiver plate, and 5 μL of a porcine brain lipid solution (20 mg/mL in dodecane) to the wells of a 96-well donor plate. […] Afterward, the donor plate was removed, and the content of the receiver plate was transferred to a UV reading plate, which was read using a microplate reader (SpectraMax 5 – Molecular Devices). A reference sample for the internal correction of the microplate reader was prepared using 180 μL of the PBS (pH 7.4)/ethanol (70:30) solution (adapted from ref ). The optical density values obtained from the content of the receiver plate were compared with the ones obtained from readings performed with the initial solutions containing each compound, before their addition to the donor plate. […] The optical density values for the experimental controls were used to determine the equation of the linear regression (optical density vs P e ), which allowed the determination of the P e value of each compound from the optical density values obtained from the receiver plate, using an in-house Microsoft Excel spreadsheet.

[3] = Metabolic stability in mouse liver microsomes; assay type: in vitro ADME; conditions: pH 7.4, MLM, with NADPH cofactor; for microsomal CLint at 5 μM: read-out: Clint, intrinsic clearance; for half-life at 5 μM: read-out: t1/2, microsomal half-life
Protocol: To a microcentrifuge tube was added 1 mg/mL Mouse Liver Microsome (MLM), a NADPH generating system consisting of 1 mM NADP+, 1.5 mM MgCl2, 3.5 mM glucose-6-phosphate and 0.5 U/mL glucose-6-phosphate dehydrogenase, and phosphate buffer (pH 7.4) in a sufficient amount for a total volume of […]. After a 15 min preincubation at 37 °C in a water bath, the enzymatic reactions were started by adding 2 μL of a […] stock solution of each compound to be assessed, reaching a final concentration of 5 μM in the tested compound. , The samples were further incubated at 37 °C under stirring (30 rpm) for predetermined periods (0, 15, 30, 45, and 60 min), and 500 μL chilled MeOH and 500 μL chilled acetonitrile were added before the samples were homogenized and left standing in an ice bath to accelerate protein precipitation. The resulting mixture was centrifugated at 13000 rpm for 15 min at 4 °C, the organic layer was extracted and 2 μL internal standard (clonazepam 5 μM) was added. Finally, the samples were filtered through a PVDF filter (Millex 0.22 μm x 13 mm) and analyzed by HPLC-PDA. ,

[4] = test system: L. infantum promastigotes; experiment: Flow cytometric cell cycle analysis (PI); assay type: cell-based, Leishmania infantum; conditions: 24 h, 0.5x, 1x, 2x IC50, PI
Protocol: Then, the cells were collected, washed twice with 1 × PBS, and fixed in 70% ethanol at 4 °C for 24 h. The fixed parasites were then washed with 1 × PBS and the pellet was treated with 500 μL of RNase A (20 mg/mL) and incubated at 37 °C for 1 h. Subsequently, the parasites were stained with 10 μg/mL propidium iodide (PI) in the dark for 20 min. Cell cycle distribution, determining the percentage of cells in G0, G1, S, and G2/M phases, was analyzed using an Accuri C5 BD flow cytometer. The histograms presented are representative of results obtained from three independent experiments.

L. infantum::tdTomato = assay type: in vivo, mouse; conditions: 500 mg/kg/day i.p., 10 days
Protocol: BALB/c mice (male, 6 to 8 weeks old, 18 to 20 g) were inoculated intravenously (tail vein) with 2 × 10^7 late-log-phase L. infantum promastigotes from Li::tdTomato lines, and randomly assigned into one of the four treatment groups (six mice per group). After 7 days of infection, […] was administered intraperitoneally in a single dose 500 mg/kg/day meglumine antimoniate (Glucantime, Sanofi Medley), both groups treated with 2 received two daily intraperitoneal injections totaling either 50 mg/kg/day or 100 mg/kg/day of 2, and the control group was administered the vehicle solution. For the intraperitoneal injection, 2 was formulated as follows: a stock solution of 2 in DMSO (100 mg/mL) was prepared daily, and a solution of 70% PBS1X, 20% PEG 400 (Polyethylene Glycol 400, Sigma-Aldrich), 0.16% Tween 80 and 10% of 2 (from the stock solution) was prepared. The control group was also administered this solution, replacing 2 with 10% DMSO. All mice were euthanized 3 days after the end of the treatment, and the liver and spleen of each animal were collected.
The number of viable parasites in each organ was determined using a quantitative limiting dilution assay. Briefly, the organs were macerated using an Ultra-Turrax disperser (IKA-Werke GmbH & Co. KG., Staufen, Germany), and a tissue homogenate was obtained with 1 mL of M199 medium. Each tissue homogenate was sequentially diluted (10-fold) in 96-well flat-bottom microtiter black plates and incubated at 26 °C for 10 days. The wells containing motile promastigotes were identified with an inverted microscope (Axiovert 25, Zeiss), and the parasite burden was determined from the highest dilution at which promastigotes had grown after 10 days of incubation.

[5] = test system: L. infantum::tdTomato intracellular amastigotes; experiment: Synergism between 2 and Sb^III against intracellular L. infantum amastigotes; assay type: cell-based, Leishmania infantum; conditions: compounds tested separately, 72 h; read-out: IC50 against intracellular amastigotes of L. infantum
Protocol: Cells derived from the human monocytic strain THP-1 were cultured in complete Rowell Park Memorial Institute (RPMI)-1640 medium (supplemented with 10% fetal bovine serum, 100 U/mL penicillin, and 100 μg/mL streptomycin). Monocytes were differentiated into macrophages by the addition of 20 ng/mL phorbol myristate acetate (PMA). After 72 h, the macrophages (5 × 10^4), in black 96-well microtiter plates (Corning Incorporated, Corning, NY), were infected with Leishmania (Leishmania) infantum (MHOM/BR/1974/PP75) promastigotes expressing red fluorescence protein on the second day of the stationary phase (20 parasites per macrophage) for 4 h. […] To investigate the possibility of synergism between Sb^III and compound 2, […] different concentrations of these drugs were used (1.0, 0.5, 0.2, 0.1, and 0.05 μg/mL), the solutions of Sb^III and 2 being prepared and diluted the day of the assay. The compounds were tested separately and in combination. […] The EC50 values were determined by nonlinear regression using a Variable slope model (log(concentration) vs growth inhibition) with the GraphPadPrism v8.2.0 (CA, USA) software. By normalizing the data as a fractional response, it was possible to perform the calculation using a Bayesian model. The results were compared to each other to determine whether the combination of compounds has a synergistic, antagonistic or additive effect. Controls with uninfected cells, untreated infected cells, infected cells treated with amphotericin B at 0.25 μM (positive control) or DMSO 1% were used. Quadruplicates were run on the same plate, and the experiments were repeated at least once.

Compound | Fa, fraction absorbed (GI) [1] | IC50 (L. braziliensis) | IC50 (L. infantum) | Papp at 8 h, 0.5 mM [1] | BBB permeation class [2] | Papp at 0.2 mg/mL [2] | microsomal CLint at 5 μM [3] | half-life at 5 μM [3] | effect on cell cycle progression [4] | parasite burden in spleen and liver (L. infantum::tdTomato) | IC50 [5]
CC(C)NCC(O)COc1ccc(CC(N)=O)cc1 (stereo not drawn) [Atenolol, reference compound] | 1.70% |  |  |  |  |  |  |  |  |  | 
O=C(c1cccc(O)c1O)N1CCN(c2cnccn2)CC1 [Compound 6, (2,3-Dihydroxyphenyl)(4-(pyrazin-2-yl)piperazin-1-yl)methanone] | 86.26% | 200 ± 200 nM | 2800 ± 1100 nM | 5.22 ×10⁻⁶ cm/s | CNS+ (CNS+: high BBB permeation, P e (10^–6 cm/s) > 4.0) | 4.51 ×10⁻⁶ cm/s | 4.2 µL/min/mg | 0.688 h |  |  | 
CCCCCCCCCCCCCCCCOP(=O)([O-])OCC[N+](C)(C)C [Miltefosine, miltefosine, reference compound] |  |  |  |  |  |  |  |  | same pattern of cell cycle arrest |  | 
Nc1ccc(C(=O)N2CCN(c3cnccn3)CC2)cn1 [Compound 4, (6-Aminopyridin-3-yl)(4-(pyrazin-2-yl)piperazin-1-yl)methanone] | 99.91% | 11900 ± 1100 nM | 5100 ± 2100 nM | 18.4 ×10⁻⁶ cm/s |  | 1.02 ×10⁻⁶ cm/s | 0.675 µL/min/mg | 4.28 h |  |  | 
meglumine antimoniate [reference compound] |  |  |  |  |  |  |  |  |  | almost completely eradicated | 
C[C@@H]1[C@H](O)[C@@H](C)/C=C/C=C/C=C/C=C/C=C/C=C/C=C/[C@H](O[C@@H]2O[C@H](C)[C@@H](O)[C@H](N)[C@@H]2O)C[C@@H]2O[C@](O)(C[C@@H](O)C[C@@H](O)[C@H](O)CC[C@@H](O)C[C@@H](O)CC(=O)O[C@H]1C)C[C@H](O)[C@H]2C(=O)O [AmB, Amphotericin B, reference compound] |  | 100 nM | 300 nM |  |  |  |  |  |  |  | 
[Sb+3] [Sb^III, reference compound] |  |  |  |  |  |  |  |  |  |  | 2400 ± 470 nM
O=C(c1ccc2cc(O)ccc2c1)N1CCN(c2cnccn2)CC1 [Compound 5, (6-Hydroxynaphthalen-2-yl)(4-(pyrazin-2-yl)piperazin-1-yl)methanone] | 45.70% | 2600 ± 200 nM | 3300 ± 2700 nM | 1.61 ×10⁻⁶ cm/s |  | 0.96 ×10⁻⁶ cm/s | 0.8 µL/min/mg | 3.61 h |  |  | 
COc1ccc(C(=O)N2CCN(c3cnccn3)CC2)cc1 [Compound 3, (4-Methoxyphenyl)(4-(pyrazin-2-yl)piperazin-1-yl)methanone] | 99.90% | 10100 ± 2800 nM | 4500 ± 700 nM | 18.2 ×10⁻⁶ cm/s | CNS± (CNS±: uncertain BBB permeation, 2.0 < P e (10^–6 cm/s) < 4.0) | 2.21 ×10⁻⁶ cm/s | 0.925 µL/min/mg | 3.12 h |  |  | 
